Consider 17 compounds from patent US10167293B2, “[8-(phenylsulfonyl)-3,8-diazabicyclo[3.2.1]oct-3-yl](1H-1,2,3-triazol-4-yl)methanones” (BAYER PHARMA AKTIENGESELLSCHAFT, priority 2016, dated 2019).

One test has as its target recombinant human AKR1C3 (Homo sapiens (Human), UniProt P42330). Description: AKR1C3-inhibitory activity assay (Coumberone to Coumberol fluorescence). The class given is biochemical. To be noted: recombinant human AKR1C3, 15 min pre-incubation, 10 μM NADPH, 0.3 μM Coumberone. How it is done: The AKR1C3-inhibitory activity of the substances of the present invention was measured in the AKR1C3 assay described in the paragraphs below.
Essentially, the enzyme activity is measured by quantification of the generation of Coumberol from Coumberone (Halim et al. J. AM. CHEM. SOC. 2008, 130:14123-14128 and Yee et al. Proc. Natl. Acad. Sci. USA 2006, 103:13304-13309). In this test, the increase of the highly fluorescent Coumberol by NADPH—(nicotinamide adenine dinucleotide phosphate)-dependent reduction of the non-fluorescent Coumberone by AKR1C3 was determined.
The enzyme used was recombinant human AKR1C3 (Aldo-keto reductase family 1 member C3; GenBank Accession No. NM_003739). This was expressed in E. coli as GST (glutathione S transferase) fusion protein and purified by glutathione Sepharose affinity chromatography. The GST was removed by digestion with thrombin and subsequent size exclusion chromatography (Dufort, I., Rheault, P., Huang, X F., Soucy, P., and Luu-The, V., Endocrinology 140, 568-574 (1999)).
For the assay, 50 nl of a 100-fold concentrated solution of the test substance in DMSO were pipetted into a black low-volume 384-well microtiter plate (Greiner Bio-One, Frickenhausen, Germany), 2.5 μl of a solution of AKR1C3 in assay buffer [50 mM potassium phosphate buffer pH 7, 1 mM DTT, 0.0022% (w/v) Pluronic F-127, 0.01% BSA (w/v) and protease inhibitor cocktail (Complete, EDTA-free Protease Inhibitor Cocktail from Roche)] were added and the mixture was incubated for 15 min to allow pre-binding of the substances to the enzyme prior to the enzyme reaction. The enzyme reaction was then started by addition of 2.5 μl of a solution of NADPH (20 μM→final concentration in 5 μl of assay volume is 10 μM) and Coumberone (0.6 μM→final concentration in 5 μl of assay volume is 0.3 μM) in assay buffer, and the resulting mixture was incubated at 22° C. for the reaction time of typically 90 min. The concentration of the AKR1C3 and the reaction time was adapted to the respective activity of the enzyme preparation and adjusted such that the assay was carried out in the linear range. Typical AKR1C3 concentrations were in the region of 1 nM. The reaction was stopped by addition of 2.5 μl of a stop solution consisting of 3 μM EM-1404 as inhibitor (U.S. Pat. No. 6,541,463) in 50 mM HEPES pH7.5 (3 μM EM-1404→final concentration in 7.5 μl of assay volume is 1 μM). The fluorescence of the Coumberole was then measured at 520 nm (excitation at 380 nm) using a suitable measuring instrument (Pherastar from BMG Labtechnologies). The intensity of the fluorescence was used as a measure of the amount of Coumberole formed and thus of the enzyme activity of AKR1C3. The data were normalized (enzyme reaction without inhibitor=0% inhibition; all other assay components, but no enzyme=100% inhibition).

A further test deals with endometriotic lesions. Nature of the test: Callithrix jacchus endometriosis model. Type of test: in vivo. The note with it: 5 mg/kg orally once per day, 6 weeks. Here is the method:
The in vivo efficacy of compound 76 was tested in a non-human primate endometriosis model in marmoset monkeys.
Marmoset monkeys (Callithrix jacchus) are non-menstruating species in which endometriosis was induced by injection of endometrial tissue into the peritoneal cavity (Einspanier, Lieder et al, 2006). 6-12 year old female common marmosets with established endometriosis were employed (body weight between 358 g and 520 g) and distributed into 2 groups, with a size of n=5 animals per group. Prior to the actual start of the treatment, the animals were subjected to a laparotomy and examined for the presence of endometriotic lesions on the bladder, the uterus and the ovaries to measure each lesion's area. The randomization of animals into the two treatment groups was performed with respect to the initial lesion status at the first laparotomy. The endometriosis severity based on total lesion area per animal was distributed similarly across the groups.
For both the treatment group (5 mg/kg of compound 76) and vehicle treated group, the sum of total lesion area/size [cm^2] per animal, with respect to lesion area and lesion number, was determined and defined as pre-treatment status. 6 weeks later the treatment was started. The test compounds were administered orally once per day in capsules (PC Caps® capsules, Capsugel). To adapt for the intended dose, a trituration of the active compound with lactose was prepared and the exact dose was filled into the individual capsules. Each capsule was separately coated with salvia resistant coating (Eudragit EPO; Evonik). After the end of a 6 weeks treatment period, a second laparotomy was carried out and the number and size of the lesions on uterus, ovaries and bladder was determined with respect to total lesion size/area and defined as post-treatment status.

For the next test, the system named is human primary adipocytes. Description: Inhibition of testosterone formation from androstenedione in human primary adipocytes. Type of test: cell-based. To be noted: 1 μM androstenedione, 1 μM or 10 μM compound, 48 h, donors with BMI 26 and 30. Here is the method:
Cat# SA-1012-3 12 well Platte). Adipocytes were incubated in Adipocyte Basal Medium (Fa. ZenBio, Cat# BM-1)+1% FCS+2.5 μg/ml Amphotericin B (Fa. […] Androstenedione served as a substrate for the formation into testosterone. After the incubation adipocytes were collected and testosterone and androstenedione concentrations were determined by LC/MS at the “Bioanalytical Service and research provider Pharm-Analyt”. Inhibition of the conversion of androstenedione to testosterone by compound 76 is determined as Testosterone/Androstenedione ratio [%]. […] FIG. 1: […] The testosterone/androstenedione ratio [%] is shown.

Molecules are shown by their SMILES.

One may read the IC50 as the concentration that inhibits the measured activity by half.

recombinant human AKR1C3, sequence (P42330 whole entry): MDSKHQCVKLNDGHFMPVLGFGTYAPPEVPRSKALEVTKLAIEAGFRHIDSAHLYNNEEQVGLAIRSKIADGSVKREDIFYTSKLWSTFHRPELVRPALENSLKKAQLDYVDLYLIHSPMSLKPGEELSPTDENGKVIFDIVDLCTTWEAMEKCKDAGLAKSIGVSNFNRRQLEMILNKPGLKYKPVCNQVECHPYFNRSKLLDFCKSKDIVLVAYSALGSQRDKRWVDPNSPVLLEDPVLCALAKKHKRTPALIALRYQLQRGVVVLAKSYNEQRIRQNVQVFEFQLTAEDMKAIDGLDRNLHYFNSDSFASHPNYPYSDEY

With `O=C(c1cnn[nH]1)N1CC2CCC(C1)N2S(=O)(=O)c1ccc2c(c1)OCO2` [Example 66, [8-(1,3-benzodioxol-5-ylsulfonyl)-3,8-diazabicyclo[3.2.1]oct-3-yl](1H-1,2,3-triazol-5-yl)methanone], on recombinant human AKR1C3, the IC50 was 0.9 nM.

`CCc1ccc(S(=O)(=O)N2C3CCC2CN(C(=O)c2cnn[nH]2)C3)cc1` [Example 49, {8-[(4-ethylphenyl)sulfonyl]-3,8-diazabicyclo[3.2.1]oct-3-yl}(1H-1,2,3-triazol-5-yl)methanone]: at recombinant human AKR1C3, the half-inhibitory concentration (IC50) stood at 1.2 nM.

For the compound `O=C(c1c[nH]nn1)N1CC2CCC(C1)N2S(=O)(=O)c1cccc(S(F)(F)(F)(F)F)c1` [Example 8, [8-{[3-(pentafluoro-lambda^6-sulfanyl)phenyl]sulfonyl}-3,8-diazabicyclo[3.2.1]oct-3-yl](1H-1,2,3-triazol-4-yl)methanone], the IC50 at recombinant human AKR1C3 is 1.3 nM.

With `Cc1ccccc1S(=O)(=O)N1C2CCC1CN(C(=O)c1cnn[nH]1)C2` [Example 6, {8-[(2-methylphenyl)sulfonyl]-3,8-diazabicyclo[3.2.1]oct-3-yl}(1H-1,2,3-triazol-4-yl)methanone], the IC50 at recombinant human AKR1C3 stood at 1.7 nM.

In the case of `COc1ccccc1S(=O)(=O)N1C2CCC1CN(C(=O)c1cnn[nH]1)C2` [Example 64, {8-[(2-methoxyphenyl)sulfonyl]-3,8-diazabicyclo[3.2.1]oct-3-yl}(1H-1,2,3-triazol-5-yl)methanone], the 50% inhibitory concentration (IC50) on recombinant human AKR1C3 amounted to 1.3 nM.

As for `O=C(c1cnn[nH]1)N1CC2CCC(C1)N2S(=O)(=O)c1c(F)cccc1F` [Example 24, {8-[(2,6-difluorophenyl)sulfonyl]-3,8-diazabicyclo[3.2.1]oct-3-yl}(1H-1,2,3-triazol-5-yl)methanone], the IC50 on recombinant human AKR1C3 is 1.8 nM.

Take `O=C(c1cnn[nH]1)N1CC2CCC(C1)N2S(=O)(=O)c1ccc(O)cc1` [Example 37, {8-[(4-hydroxyphenyl)sulfonyl]-3,8-diazabicyclo[3.2.1]oct-3-yl}(1H-1,2,3-triazol-5-yl)methanone]: on recombinant human AKR1C3, the IC50 was 2.8 nM.

As for `O=C(c1cnn[nH]1)N1CC2CCC(C1)N2S(=O)(=O)c1cccc2cccnc12` [Example 40, [8-(quinolin-8-ylsulfonyl)-3,8-diazabicyclo[3.2.1]oct-3-yl](1H-1,2,3-triazol-5-yl)methanone], the IC50 on recombinant human AKR1C3 is 3.4 nM.

Turning to `O=C(c1c[nH]nn1)N1CC2CCC(C1)N2S(=O)(=O)c1cc(Cl)cc(Cl)c1` [Example 9, {8-[(3,5-dichlorophenyl)sulfonyl]-3,8-diazabicyclo[3.2.1]oct-3-yl}(1H-1,2,3-triazol-4-yl)methanone], the IC50 on recombinant human AKR1C3 worked out at 0.9 nM.

As for `O=C(c1cnn[n-]1)N1CC2CCC(C1)N2S(=O)(=O)c1cccc(F)c1.[Na+]` [Example 76, sodium 5-({8-[(3-fluorophenyl)sulfonyl]-3,8-diazabicyclo[3.2.1]oct-3-yl}carbonyl)-1,2,3-triazol-1-ide], the “mean reduction of the total lesion size compared to baseline” value with endometriotic lesions (n=5) stood at 68.9%. In addition, in the test on endometriotic lesions (all treated animals), the “ratio of total lesion size/area post- versus pre-treatment” value is “below 1”. The “total lesion size post-treatment versus pre-treatment” value in the test on endometriotic lesions (marmosets with established endometriosis) is “strongly reduced”. The “formation of testosterone from androstenedione (Testosterone/Androstenedione ratio)” value with human primary adipocytes is recorded as “inhibited”. Besides, the IC50 on recombinant human AKR1C3 was 1.1 nM.

For `O=C(c1cnn[nH]1)N1CC2CCC(C1)N2S(=O)(=O)c1ccc(OC(F)(F)F)cc1` [Example 41, 1H-1,2,3-triazol-5-yl[8-{[4-(trifluoromethoxy)phenyl]sulfonyl}-3,8-diazabicyclo[3.2.1]oct-3-yl]methanone], at recombinant human AKR1C3, the IC50 stood at 6.5 nM.

In the case of `O=C(c1cnn[nH]1)N1CC2CCC(C1)N2S(=O)(=O)c1cccc(Cl)c1F` [Example 27, {8-[(3-chloro-2-fluorophenyl)sulfonyl]-3,8-diazabicyclo[3.2.1]oct-3-yl}(1H-1,2,3-triazol-5-yl)methanone], at recombinant human AKR1C3, the concentration for half-maximal inhibition (IC50) amounted to 0.9 nM.

`Cc1ccc(C)c(S(=O)(=O)N2C3CCC2CN(C(=O)c2cnn[nH]2)C3)c1` [Example 19, {8-[(2,5-dimethylphenyl)sulfonyl]-3,8-diazabicyclo[3.2.1]oct-3-yl}(1H-1,2,3-triazol-5-yl)methanone]: the IC50 at recombinant human AKR1C3 amounted to 1.1 nM.

Consider `O=C(c1cnn[nH]1)N1CC2CCC(C1)N2S(=O)(=O)c1cccc2nonc12` [Example 55, [8-(2,1,3-benzoxadiazol-4-ylsulfonyl)-3,8-diazabicyclo[3.2.1]oct-3-yl](1H-1,2,3-triazol-5-yl)methanone], for which the half-maximal inhibitory concentration (IC50) on recombinant human AKR1C3 worked out at 2.7 nM.

On to `Cc1cccc(S(=O)(=O)N2C3CCC2CN(C(=O)c2cnn[nH]2)C3)c1` [Example 13, {8-[(3-methylphenyl)sulfonyl]-3,8-diazabicyclo[3.2.1]oct-3-yl}(1H-1,2,3-triazol-5-yl)methanone], for which the half-inhibitory concentration (IC50) at recombinant human AKR1C3 turned out to be 1.4 nM.

On to `O=C(c1cnn[nH]1)N1CC2CCC(C1)N2S(=O)(=O)c1cc(Cl)ccc1Cl` [Example 30, {8-[(2,5-dichlorophenyl)sulfonyl]-3,8-diazabicyclo[3.2.1]oct-3-yl}(1H-1,2,3-triazol-5-yl)methanone], for which the IC50 on recombinant human AKR1C3 was determined as 0.6 nM.

For `O=C(c1cnn[nH]1)N1CC2CCC(C1)N2S(=O)(=O)c1ccccc1OC(F)(F)F` [Example 42, 1H-1,2,3-triazol-5-yl[8-{[2-(trifluoromethoxy)phenyl]sulfonyl}-3,8-diazabicyclo[3.2.1]oct-3-yl]methanone], on recombinant human AKR1C3, the 50% inhibitory concentration (IC50) worked out at 1.1 nM.
